Measured values published in ChEMBL document CHEMBL1909294, “Translating clinical findings into knowledge in drug safety evaluation--drug induced liver injury prediction system (DILIps)” (PLoS Comput Biol, 2011).

Legend:
[1] = system: Hepatotoxicity;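 on HepSE bilirubinemia: bilirubinemia hepatic side effect score drawn from the DILIps training data, a prediction system for drug-induced liver injury; call rule not given here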;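 on HepSE cholecystitis: Cholecystitis-related hepatic side effect score drawn from the DILIps (drug-induced liver injury prediction) training data set; call rule not given here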;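 on HepSE cholelithiasis: hepatic side effect score for cholelithiasis, drawn from the DILIps training data for predicting drug-induced liver injury; call rule not given here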;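 on HepSE cirrhosis: cirrhosis hepatic side effect score taken from the DILIps (drug-induced liver injury prediction) training set; call rule not given here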; on HepSE hepatic failure: call rule not given here;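 on HepSE hepatomegaly: hepatic side effect score for hepatomegaly, taken from the training set of the DILIps drug-induced liver injury prediction system; call rule not given here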;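 on HepSE jaundice: Jaundice-related hepatic side-effect score drawn from the training data of the DILIps (drug-induced liver injury prediction system); call rule not given here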
[2] = system: Hepatotoxicity; remark: listed apart in the source;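 on HepSE bilirubinemia: bilirubinemia hepatic side effect score drawn from the DILIps training data, a prediction system for drug-induced liver injury; call rule not given here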;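 on HepSE cholecystitis: Cholecystitis-related hepatic side effect score drawn from the DILIps (drug-induced liver injury prediction) training data set; call rule not given here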;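 on HepSE cholelithiasis: hepatic side effect score for cholelithiasis, drawn from the DILIps training data for predicting drug-induced liver injury; call rule not given here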;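 on HepSE cirrhosis: cirrhosis hepatic side effect score taken from the DILIps (drug-induced liver injury prediction) training set; call rule not given here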; on HepSE hepatic failure: call rule not given here;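 on HepSE hepatomegaly: hepatic side effect score for hepatomegaly, taken from the training set of the DILIps drug-induced liver injury prediction system; call rule not given here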;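 on HepSE jaundice: Jaundice-related hepatic side-effect score drawn from the training data of the DILIps (drug-induced liver injury prediction system); call rule not given here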
[3] = system: Hepatotoxicity; remark: listed apart in the source;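 on HepSE bilirubinemia: bilirubinemia hepatic side effect score drawn from the DILIps training data, a prediction system for drug-induced liver injury; call rule not given here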;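 on HepSE cholecystitis: Cholecystitis-related hepatic side effect score drawn from the DILIps (drug-induced liver injury prediction) training data set; call rule not given here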;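 on HepSE cholelithiasis: hepatic side effect score for cholelithiasis, drawn from the DILIps training data for predicting drug-induced liver injury; call rule not given here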;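 on HepSE cirrhosis: cirrhosis hepatic side effect score taken from the DILIps (drug-induced liver injury prediction) training set; call rule not given here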; on HepSE hepatic failure: call rule not given here;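 on HepSE hepatomegaly: hepatic side effect score for hepatomegaly, taken from the training set of the DILIps drug-induced liver injury prediction system; call rule not given here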
[4] = system: Hepatotoxicity; remark: listed apart in the source;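 on HepSE bilirubinemia: bilirubinemia hepatic side effect score drawn from the DILIps training data, a prediction system for drug-induced liver injury; call rule not given here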;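 on HepSE cholecystitis: Cholecystitis-related hepatic side effect score drawn from the DILIps (drug-induced liver injury prediction) training data set; call rule not given here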;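 on HepSE cholelithiasis: hepatic side effect score for cholelithiasis, drawn from the DILIps training data for predicting drug-induced liver injury; call rule not given here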;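 on HepSE cirrhosis: cirrhosis hepatic side effect score taken from the DILIps (drug-induced liver injury prediction) training set; call rule not given here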; on HepSE hepatic failure: call rule not given here;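 on HepSE hepatomegaly: hepatic side effect score for hepatomegaly, taken from the training set of the DILIps drug-induced liver injury prediction system; call rule not given here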
[5] = system: Hepatotoxicity; remark: listed apart in the source; on HepSE hepatic failure: call rule not given here
[6] = system: Hepatotoxicity; remark: listed apart in the source; on HepSE hepatic failure: call rule not given here
[7] = system: Hepatotoxicity; remark: listed apart in the source
[8] = system: Hepatotoxicity; remark: listed apart in the source
[9] = system: Hepatotoxicity; remark: listed apart in the source
[10] = system: Hepatotoxicity; remark: listed apart in the source
[11] = system: Hepatotoxicity; remark: listed apart in the source
[12] = system: Hepatotoxicity; remark: listed apart in the source

SMILES | HepSE_bilirubinemia ([1]; Liver) | HepSE_cholecystitis ([2]; Liver) | HepSE_cholelithiasis ([3]; Liver) | HepSE_cirrhosis ([4]; Liver) | HepSE_hepatic failure ([5]; Liver) | HepSE_hepatic necrosis ([6]; Liver) | HepSE_hepatitis ([7]; Liver) | HepSE_hepatomegaly ([8]; Liver) | HepSE_jaundice ([9]; Liver) | HepSE_liver disease ([10]; Liver) | HepSE_liver fatty ([11]; Liver) | HepSE_Combined Scores ([12]; Liver) | other results
COc1ccc(CCN(C)CCCC(C#N)(c2ccc(OC)c(OC)c2)C(C)C)cc1OC (stereo not given) | – | – | – | – | – | – | – | – | – | – | – | – | HepSE_bilirubinemia [1]: 0; HepSE_cholecystitis [2]: 0; HepSE_cholelithiasis [3]: 0; HepSE_cirrhosis [4]: 0; HepSE_hepatic failure [5]: 0; HepSE_hepatic necrosis [6]: 0; HepSE_hepatitis [7]: 1; HepSE_hepatomegaly [8]: 0; HepSE_jaundice [9]: 1; HepSE_liver disease [10]: 0; HepSE_liver fatty [11]: 0; HepSE_Combined Scores [12]: 2
NCCCC(O)(P(=O)(O)O)P(=O)(O)O [ALENDRONIC ACID] | 0 | 0 | 0 | 0 | 0 | 0 | 0 | 0 | 0 | 0 | 0 | 0 | –
CCCCc1oc2ccccc2c1C(=O)c1cc(I)c(OCCN(CC)CC)c(I)c1 [AMIODARONE] | 0 | 0 | 0 | 1 | 0 | 0 | 1 | 1 | 0 | 1 | 0 | 5 | –
CC(C)NCC(O)COc1ccc(CC(N)=O)cc1 (stereo not given) [ATENOLOL] | 0 | 0 | 0 | 0 | 0 | 0 | 0 | 0 | 0 | 0 | 0 | 0 | –
CC(C)c1c(C(=O)Nc2ccccc2)c(-c2ccccc2)c(-c2ccc(F)cc2)n1CC[C@@H](O)C[C@@H](O)CC(=O)O [ATORVASTATIN] | 0 | 0 | 0 | 0 | 0 | 0 | 1 | 0 | 1 | 0 | 0 | 3 | –
CN1[C@@H]2CC[C@H]1C[C@@H](OC(=O)C(CO)c1ccccc1)C2 (stereo not given in full) [ATROPINE] | 0 | 0 | 0 | 0 | 0 | 0 | 0 | 0 | 0 | 0 | 0 | 0 | –
CC1=C(C(=O)O)N2C(=O)[C@@H](NC(=O)[C@H](N)c3ccccc3)[C@H]2SC1 [CEPHALEXIN ANHYDROUS] | 0 | 0 | 0 | 0 | 0 | 0 | 1 | 0 | 1 | 0 | 0 | 2 | –
O=C(O)COCCN1CCN(C(c2ccccc2)c2ccc(Cl)cc2)CC1 (stereo not given) [CETIRIZINE] | 0 | 0 | 0 | 0 | 0 | 0 | 1 | 0 | 1 | 0 | 0 | 2 | –
O=C(O)c1cn(C2CC2)c2cc(N3CCNCC3)c(F)cc2c1=O [CIPROFLOXACIN] | 1 | 0 | 0 | 0 | 1 | 1 | 1 | 1 | 1 | 0 | 0 | 7 | –
Clc1ccc2c(c1)CCc1cccnc1C2=C1CCNCC1 [DESLORATADINE] | – | – | – | – | – | – | – | – | – | – | – | – | HepSE_bilirubinemia [1]: 0; HepSE_cholecystitis [2]: 0; HepSE_cholelithiasis [3]: 0; HepSE_cirrhosis [4]: 0; HepSE_hepatic failure [5]: 0; HepSE_hepatic necrosis [6]: 0; HepSE_hepatitis [7]: 1; HepSE_hepatomegaly [8]: 0; HepSE_jaundice [9]: 0; HepSE_liver disease [10]: 0; HepSE_liver fatty [11]: 0; HepSE_Combined Scores [12]: 1
CN1C(=O)CN=C(c2ccccc2)c2cc(Cl)ccc21 [DIAZEPAM] | 0 | 0 | 0 | 0 | 0 | 0 | 0 | 0 | 1 | 0 | 0 | 1 | –
CN(C)CCOC(c1ccccc1)c1ccccc1 [DIPHENHYDRAMINE] | 0 | 0 | 0 | 0 | 0 | 0 | 0 | 0 | 0 | 0 | 0 | 0 | –
CC(C)(C(=O)O)c1ccc(C(O)CCCN2CCC(C(O)(c3ccccc3)c3ccccc3)CC2)cc1 (stereo not given) [FEXOFENADINE] | 0 | 0 | 0 | 0 | 0 | 0 | 0 | 0 | 0 | 0 | 0 | 0 | –
Cc1ccc(NC(=O)c2ccc(CN3CCN(C)CC3)cc2)cc1Nc1nccc(-c2cccnc2)n1 [IMATINIB] | – | – | – | – | – | – | – | – | – | – | – | – | HepSE_bilirubinemia [1]: 0; HepSE_cholecystitis [2]: 0; HepSE_cholelithiasis [3]: 0; HepSE_cirrhosis [4]: 0; HepSE_hepatic failure [5]: 1; HepSE_hepatic necrosis [6]: 1; HepSE_hepatitis [7]: 1; HepSE_hepatomegaly [8]: 0; HepSE_jaundice [9]: 1; HepSE_liver disease [10]: 0; HepSE_liver fatty [11]: 0; HepSE_Combined Scores [12]: 4
CCN(CC)CC(=O)Nc1c(C)cccc1C [LIDOCAINE] | 0 | 0 | 0 | 0 | 0 | 0 | 0 | 0 | 0 | 0 | 0 | 0 | –
CCOC(=O)N1CCC(=C2c3ccc(Cl)cc3CCc3cccnc32)CC1 [LORATADINE] | 0 | 0 | 0 | 0 | 0 | 0 | 0 | 0 | 0 | 0 | 0 | 0 | –
CN1CC[C@]23c4c5ccc(O)c4O[C@H]2[C@@H](O)C=C[C@H]3[C@H]1C5 [MORPHINE] | 0 | 0 | 0 | 0 | 0 | 0 | 0 | 0 | 0 | 0 | 0 | 1 | –
COc1ccc2cc([C@H](C)C(=O)O)ccc2c1 [NAPROXEN] | 0 | 1 | 1 | 0 | 1 | 0 | 1 | 0 | 1 | 0 | 0 | 6 | –
CCCNCC(O)COc1ccccc1C(=O)CCc1ccccc1 (stereo not given) [PROPAFENONE] | 0 | 0 | 0 | 0 | 0 | 0 | 1 | 1 | 1 | 0 | 0 | 4 | –
CC(C)c1nc(CN(C)C(=O)N[C@H](C(=O)N[C@@H](Cc2ccccc2)C[C@H](O)[C@H](Cc2ccccc2)NC(=O)OCc2cncs2)C(C)C)cs1 [RITONAVIR] | – | – | – | – | – | – | – | – | – | – | – | – | HepSE_cholecystitis [2]: 0; HepSE_cholelithiasis [3]: 0; HepSE_cirrhosis [4]: 0; HepSE_hepatic necrosis [6]: 0; HepSE_hepatitis [7]: 1; HepSE_hepatomegaly [8]: 1; HepSE_jaundice [9]: 1; HepSE_liver disease [10]: 0; HepSE_liver fatty [11]: 0; HepSE_Combined Scores [12]: 3
CN1[C@@H]2C[C@@H](OC(=O)[C@H](CO)c3ccccc3)C[C@H]1[C@@H]1O[C@@H]12 [SCOPOLAMINE] | 0 | 0 | 0 | 0 | 0 | 0 | 0 | 0 | 0 | 0 | 0 | 0 | –
